Each compound was assayed on PDGFR (assay: Rat A10 cell proliferation assay). Conditions: Table 1; Rat A10 cells, recombinant rat PDGF-BB, CellTiter-Glo after 68 hours.
Type: cell-based
Description: Compounds of Formula (I) provided herein were assayed to measure their capacity to inhibit c-kit and PDGFR kinases using the appropriate assay described below: c-Kit inhibition was evaluated using the Mo7e cell proliferation assay, and PDGFR inhibition was evaluated using the Rat A10 cell proliferation assay and the Human TG/HA-VSMC cell proliferation assay.
Rat A10 cells (ATCC) were resuspended in DMEM supplemented with 1% FBS and 10 ng/mL recombinant rat PDGF-BB at 20,000 cells/mL. The cells were aliquoted into 384 well plates at 50 μL/well and incubated for 4 hours at 37° C. 0.5 μL of test compound 3-fold serially diluted in DMSO was added to each well. The plates were returned to the incubator for a further 68 hours. 25 μL of CellTiter-Glo (Promega) was added to each well and the plates were incubated on the bench for 15 minutes. Luminescence was then read using a CLIPR CCD camera (Molecular Devices).

In order of falling IC50:
1. O=C(N[C@@H]1CCCC[C@@H]1O)c1ccc(F)c(NC(=O)c2cnc3ccccn23)c1 [F11, N-(2-fluoro-5-{[(1R,2S)-2-hydroxycyclohexyl]carbamoyl}phenyl)imidazo[1,2-a]pyridine-3-carboxamide]  199 nM
2. O=C(N[C@@H]1c2ccccc2OC[C@@H]1O)c1ccc(F)c(NC(=O)c2cnc3ccccn23)c1 (racemic) [F34, N-(2-fluoro-5-{[(3R,4R)-3-hydroxy-3,4-dihydro-2H-1-benzopyran-4-yl]carbamoyl}phenyl)imidazo[1,2-a]pyridine-3-carboxamide]  195 nM
3. Cc1ccc(C(=O)NC(CO)C(C)C)cc1NC(=O)c1cnc2ccccn12 (stereo not drawn) [F3, N-{5-[(1-hydroxy-3-methylbutan-2-yl)carbamoyl]-2-methylphenyl}imidazo[1,2-a]pyridine-3-carboxamide]  175 nM
4. Cc1ccc2ncc(C(=O)Nc3cc(C(=O)N[C@@H]4c5cc(Cl)ccc5C[C@@H]4O)ccc3F)n2c1 (stereo in doubt) [F33, N-(5-{[(1R,2S)-6-chloro-2-hydroxy-2,3-dihydro-1H-inden-1-yl]carbamoyl}-2-fluorophenyl)-6-methylimidazo[1,2-a]pyridine-3-carboxamide]  163 nM
5. Cc1ccc(C(=O)NC(CO)c2ccccc2)cc1NC(=O)c1cnc2ccccn12 (stereo not drawn) [F2, N-{5-[(2-hydroxy-1-phenylethyl)carbamoyl]-2-methylphenyl}imidazo[1,2-a]pyridine-3-carboxamide]  146 nM
6. O=C(N[C@@H]1c2ccccc2C[C@H]1O)c1ccc(F)c(NC(=O)c2cnc3ccccn23)c1 [F7, N-(2-fluoro-5-{[(1R,2R)-2-hydroxy-2,3-dihydro-1H-inden-1-yl]carbamoyl}phenyl)imidazo[1,2-a]pyridine-3-carboxamide]  138 nM
7. O=C(NC1Cc2ccccc2C1O)c1ccc(F)c(NC(=O)c2cnc3cc(Br)ccn23)c1 (stereo not drawn) [F10, 7-bromo-N-{2-fluoro-5-[(1-hydroxy-2,3-dihydro-1H-inden-2-yl)carbamoyl]phenyl}imidazo[1,2-a]pyridine-3-carboxamide]  130 nM
8. O=C(NC(CO)c1ccccc1)c1ccc(F)c(NC(=O)c2cnc3ccccn23)c1 (stereo not drawn) [F4, N-{2-fluoro-5-[(2-hydroxy-1-phenylethyl)carbamoyl]phenyl}imidazo[1,2-a]pyridine-3-carboxamide]  89 nM
9. O=C(N[C@H]1c2ccccc2C[C@H]1O)c1ccc(F)c(NC(=O)c2cnc3ccccn23)c1 [F6, N-(2-fluoro-5-{[(1S,2R)-2-hydroxy-2,3-dihydro-1H-inden-1-yl]carbamoyl}phenyl)imidazo[1,2-a]pyridine-3-carboxamide]  86 nM
10. Cc1ccc(C(=O)NC(CO)Cc2ccccc2)cc1NC(=O)c1cnc2ccccn12 (stereo not drawn) [F1, N-{5-[(1-hydroxy-3-phenylpropan-2-yl)carbamoyl]-2-methylphenyl}imidazo[1,2-a]pyridine-3-carboxamide]  82 nM
11. O=C(N[C@@H]1CCCCC[C@H]1O)c1ccc(F)c(NC(=O)c2cnc3ccccn23)c1 [F12, N-(2-fluoro-5-{[(1R,2R)-2-hydroxycycloheptyl]carbamoyl}phenyl)imidazo[1,2-a]pyridine-3-carboxamide]  79 nM
12. O=C(N[C@H]1CCCC[C@@H]1O)c1ccc(F)c(NC(=O)c2cnc3ccccn23)c1 [F9, N-(2-fluoro-5-{[(1S,2S)-2-hydroxycyclohexyl]carbamoyl}phenyl)imidazo[1,2-a]pyridine-3-carboxamide]  70 nM
13. CN(C)CCCOc1ccc(-c2ccn3c(C(=O)Nc4cc(C(=O)N[C@H]5Cc6ccccc6[C@H]5O)ccc4F)cnc3c2)cn1 (stereo in doubt) [F32, 7-{6-[3-(dimethylamino)propoxy]pyridin-3-yl}-N-(2-fluoro-5-{[(1R,2S)-1-hydroxy-2,3-dihydro-1H-inden-2-yl]carbamoyl}phenyl)imidazo[1,2-a]pyridine-3-carboxamide]  44 nM
14. O=C(N[C@H]1c2ccccc2C[C@@H]1O)c1ccc(F)c(NC(=O)c2cnc3ccccn23)c1 [F8, N-(2-fluoro-5-{[(1S,2S)-2-hydroxy-2,3-dihydro-1H-inden-1-yl]carbamoyl}phenyl)imidazo[1,2-a]pyridine-3-carboxamide]  38 nM
15. O=C(N[C@@H]1c2ccccc2C[C@@H]1O)c1ccc(F)c(NC(=O)c2cnc3ccccn23)c1 [F5, N-(2-fluoro-5-{[(1R,2S)-2-hydroxy-2,3-dihydro-1H-inden-1-yl]carbamoyl}phenyl)imidazo[1,2-a]pyridine-3-carboxamide]  35 nM

Same assay, conditions: Table 2; Rat A10 cells, recombinant rat PDGF-BB, CellTiter-Glo after 68 hours

In order of rising IC50:
1. O=C(N[C@@H]1c2ccccc2C[C@@H]1O)c1ccc(F)c(NC(=O)c2cnc3cc(C(F)(F)F)ccn23)c1 (stereo in doubt) [F40, N-(2-fluoro-5-{[(1R,2S)-2-hydroxy-2,3-dihydro-1H-inden-1-yl]carbamoyl}phenyl)-7-(trifluoromethyl)imidazo[1,2-a]pyridine-3-carboxamide]  261 nM
2. Cc1ccc2ncc(C(=O)Nc3cc(C(=O)N[C@@H]4c5ccc(Cl)cc5C[C@@H]4O)ccc3F)n2c1 (stereo in doubt) [F41, N-(5-{[(1R,2S)-5-chloro-2-hydroxy-2,3-dihydro-1H-inden-1-yl]carbamoyl}-2-fluorophenyl)-6-methylimidazo[1,2-a]pyridine-3-carboxamide]  272 nM
3. O=C(N[C@@H]1c2cc(Cl)ccc2C[C@@H]1O)c1ccc(F)c(NC(=O)c2cnc3ccc(F)cn23)c1 (stereo in doubt) [F42, N-(5-{[(1R,2S)-6-chloro-2-hydroxy-2,3-dihydro-1H-inden-1-yl]carbamoyl}-2-fluorophenyl)-6-fluoroimidazo[1,2-a]pyridine-3-carboxamide]  277 nM
4. O=C(NC1CCCC[C@H]1CO)c1ccc(F)c(NC(=O)c2cnc3ccccn23)c1 (stereo in doubt) [F43, N-(2-fluoro-5-{[(1R,2R)-2-(hydroxymethyl)cyclohexyl]carbamoyl}phenyl)imidazo[1,2-a]pyridine-3-carboxamide]  294 nM
5. O=C(NC(CO)c1ccccc1)c1cccc(NC(=O)c2cnc3ccccn23)c1 (stereo in doubt) [F44, N-(3-{[(1S)-2-hydroxy-1-phenylethyl]carbamoyl}phenyl)imidazo[1,2-a]pyridine-3-carboxamide]  311 nM
6. COc1ccc2c(c1)[C@@H](NC(=O)c1ccc(F)c(NC(=O)c3cnc4ccc(C)cn34)c1)[C@@H](O)C2 (stereo in doubt) [F45, N-(2-fluoro-5-{[(1R,2S)-2-hydroxy-6-methoxy-2,3-dihydro-1H-inden-1-yl]carbamoyl}phenyl)-6-methylimidazo[1,2-a]pyridine-3-carboxamide]  345 nM
7. O=C(N[C@H]1Cc2ccccc2[C@H]1O)c1ccc(F)c(NC(=O)c2cnc3ccccn23)c1 (stereo in doubt) [F46, N-(2-fluoro-5-{[(1R,2S)-1-hydroxy-2,3-dihydro-1H-inden-2-yl]carbamoyl}phenyl)imidazo[1,2-a]pyridine-3-carboxamide]  348 nM
8. O=C(N[C@@H]1c2ccccc2C[C@@H]1O)c1cccc(NC(=O)c2cnc3ccccn23)c1 (stereo in doubt) [F47, N-(3-{[(1R,2S)-2-hydroxy-2,3-dihydro-1H-inden-1-yl]carbamoyl}phenyl)imidazo[1,2-a]pyridine-3-carboxamide]  356 nM
9. O=C(N[C@@H]1c2ccccc2C[C@@H]1O)c1ccc(F)c(NC(=O)c2cnc3ccc(N4CCOCC4)cn23)c1 (stereo in doubt) [F54, N-(2-fluoro-5-{[(1R,2S)-2-hydroxy-2,3-dihydro-1H-inden-1-yl]carbamoyl}phenyl)-6-(morpholin-4-yl)imidazo[1,2-a]pyridine-3-carboxamide]  477 nM
10. O=C(N[C@@H]1c2ccccc2C[C@@H]1O)c1ccc(F)c(NC(=O)c2cnc3ccc(C(F)(F)F)cn23)c1 (stereo in doubt) [F58, N-(2-fluoro-5-{[(1R,2S)-2-hydroxy-2,3-dihydro-1H-inden-1-yl]carbamoyl}phenyl)-6-(trifluoromethyl)imidazo[1,2-a]pyridine-3-carboxamide]  584 nM
11. O=C(N[C@@H]1c2ccccc2C[C@@H]1O)c1ccc(F)c(NC(=O)c2cnc3ccc(COCC(F)(F)F)cn23)c1 (stereo in doubt) [F61, N-(2-fluoro-5-{[(1R,2S)-2-hydroxy-2,3-dihydro-1H-inden-1-yl]carbamoyl}phenyl)-6-[(2,2,2-trifluoroethoxy)methyl]imidazo[1,2-a]pyridine-3-carboxamide]  618 nM
12. O=C(N[C@H]1CCCC1O)c1ccc(F)c(NC(=O)c2cnc3ccccn23)c1 (stereo in doubt) [F62, N-(2-fluoro-5-{[(1S,2S)-2-hydroxycyclopentyl]carbamoyl}phenyl)imidazo[1,2-a]pyridine-3-carboxamide]  684 nM
13. O=C(N[C@@H]1CCC[C@@H]1O)c1ccc(F)c(NC(=O)c2cnc3ccccn23)c1 (stereo in doubt) [F66, N-(2-fluoro-5-{[(1R,2S)-2-hydroxycyclopentyl]carbamoyl}phenyl)imidazo[1,2-a]pyridine-3-carboxamide]  1180 nM
14. O=C(N[C@H]1CCCCC1O)c1cccc(NC(=O)c2cnc3ccccn23)c1 (stereo in doubt) [F67, N-(3-{[(1S,2S)-2-hydroxycyclohexyl]carbamoyl}phenyl)imidazo[1,2-a]pyridine-3-carboxamide]  1360 nM
15. O=C(N[C@@H]1c2ccccc2C[C@@H]1O)c1ccc(F)c(NC(=O)c2cnc3ccc(-n4ccnc4)cn23)c1 (stereo in doubt) [F72, N-(2-fluoro-5-{[(1R,2S)-2-hydroxy-2,3-dihydro-1H-inden-1-yl]carbamoyl}phenyl)-6-(1H-imidazol-1-yl)imidazo[1,2-a]pyridine-3-carboxamide]  2860 nM
